Assay results taken from ChEMBL document CHEMBL1909046, “DrugMatrix in vitro pharmacology data”.

What was measured:
[1] = biological target: T1, Interstitial collagenase (Homo sapiens, UniProt P03956); experiment: biochemical; type: tissue-based, Rheumatoid synovial fibroblasts;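 note: MMP-1 enzyme inhibition assay using a peptide substrate; in other assays of this panel Not Active means under 50% inhibition at 10 µM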
T1 sequence (P03956 whole entry): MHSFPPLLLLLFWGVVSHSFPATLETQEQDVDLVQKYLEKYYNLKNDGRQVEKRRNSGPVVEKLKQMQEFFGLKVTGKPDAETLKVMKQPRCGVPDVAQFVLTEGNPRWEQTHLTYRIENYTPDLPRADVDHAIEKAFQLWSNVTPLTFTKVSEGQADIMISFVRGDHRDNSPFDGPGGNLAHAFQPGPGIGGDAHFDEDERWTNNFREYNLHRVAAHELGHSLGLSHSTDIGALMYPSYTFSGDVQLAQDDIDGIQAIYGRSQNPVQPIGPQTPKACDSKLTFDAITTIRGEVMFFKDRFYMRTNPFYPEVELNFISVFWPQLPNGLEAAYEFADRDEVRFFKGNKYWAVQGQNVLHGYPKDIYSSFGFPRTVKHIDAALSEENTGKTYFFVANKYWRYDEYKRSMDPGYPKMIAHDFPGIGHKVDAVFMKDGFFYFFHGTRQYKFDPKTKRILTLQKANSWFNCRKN

[2] = biological target: T2, Estrogen receptor (Homo sapiens, UniProt P03372); details: sf9; note: in other assays of this panel Not Active means under 50% inhibition at 10 µM
T2 sequence (P03372 whole entry): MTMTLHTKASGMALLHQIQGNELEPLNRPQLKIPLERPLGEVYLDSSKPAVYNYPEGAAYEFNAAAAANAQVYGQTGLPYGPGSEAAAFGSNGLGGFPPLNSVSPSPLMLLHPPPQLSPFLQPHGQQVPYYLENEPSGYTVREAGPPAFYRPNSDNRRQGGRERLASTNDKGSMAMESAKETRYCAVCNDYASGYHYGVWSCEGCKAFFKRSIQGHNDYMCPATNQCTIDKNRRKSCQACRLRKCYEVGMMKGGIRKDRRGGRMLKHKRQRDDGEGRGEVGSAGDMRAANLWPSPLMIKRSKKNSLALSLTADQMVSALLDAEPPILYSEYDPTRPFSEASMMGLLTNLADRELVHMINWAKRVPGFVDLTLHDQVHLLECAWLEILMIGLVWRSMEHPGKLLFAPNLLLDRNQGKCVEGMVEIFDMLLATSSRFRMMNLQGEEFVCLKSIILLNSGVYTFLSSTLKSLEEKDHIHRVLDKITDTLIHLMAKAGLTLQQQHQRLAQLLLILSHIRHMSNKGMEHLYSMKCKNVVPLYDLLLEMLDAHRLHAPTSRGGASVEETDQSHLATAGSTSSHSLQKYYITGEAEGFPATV

[3] = biological target: Prostaglandin G/H synthase 1 (Homo sapiens, UniProt P23219); experiment: biochemical; type: tissue-based, Platelet;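 note: inhibition of COX-1 enzyme activity, with arachidonic acid supplied as substrate; in other assays of this panel Not Active means under 50% inhibition at 10 µM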
[4] = biological target: Substance-P receptor (Homo sapiens, UniProt P25103); type: cell membranes, CHO, Membrane; details: cho; note: in other assays of this panel Not Active means under 50% inhibition at 10 µM
[5] = biological target: T3, C-C chemokine receptor type 4 (Homo sapiens, UniProt P51679); type: cell membranes, Membrane; details: chem-1; note: in other assays of this panel Not Active means under 50% inhibition at 10 µM
T3 sequence (P51679 whole entry): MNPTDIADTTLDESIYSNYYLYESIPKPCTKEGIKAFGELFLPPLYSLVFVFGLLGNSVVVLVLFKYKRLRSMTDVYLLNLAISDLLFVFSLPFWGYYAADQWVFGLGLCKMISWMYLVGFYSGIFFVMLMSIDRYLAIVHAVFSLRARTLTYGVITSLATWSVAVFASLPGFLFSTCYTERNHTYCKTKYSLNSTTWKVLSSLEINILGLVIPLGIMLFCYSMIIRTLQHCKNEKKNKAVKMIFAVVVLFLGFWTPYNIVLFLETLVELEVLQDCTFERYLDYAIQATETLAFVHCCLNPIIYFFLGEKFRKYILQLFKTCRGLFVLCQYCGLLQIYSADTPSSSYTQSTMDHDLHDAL

[6] = biological target: T4, Muscarinic acetylcholine receptor M4 (Homo sapiens, UniProt P08173); type: cell membranes, CHO-K1, Membrane; details: cho-k1; note: in other assays of this panel Not Active means under 50% inhibition at 10 µM
T4 sequence (P08173 whole entry): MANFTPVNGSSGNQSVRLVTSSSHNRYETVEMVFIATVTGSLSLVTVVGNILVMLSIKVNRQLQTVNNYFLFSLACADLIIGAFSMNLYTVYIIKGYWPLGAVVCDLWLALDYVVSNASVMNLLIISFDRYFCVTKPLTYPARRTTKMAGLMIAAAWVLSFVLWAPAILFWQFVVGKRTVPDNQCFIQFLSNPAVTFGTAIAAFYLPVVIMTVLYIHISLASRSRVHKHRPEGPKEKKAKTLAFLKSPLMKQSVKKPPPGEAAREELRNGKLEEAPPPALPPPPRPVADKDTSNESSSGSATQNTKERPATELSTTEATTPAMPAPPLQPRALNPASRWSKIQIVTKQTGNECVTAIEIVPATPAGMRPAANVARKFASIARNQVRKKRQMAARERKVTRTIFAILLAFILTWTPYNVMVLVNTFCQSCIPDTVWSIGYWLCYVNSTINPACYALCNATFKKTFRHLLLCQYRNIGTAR

[7] = DRUGMATRIX: Phosphodiesterase PDE3 enzyme inhibition (substrate: [3H]cAMP + cAMP); type: tissue-based, Homo sapiens; details: platelet; Not Active = under 50% inhibition at 10 µM

Chain of Prostaglandin G/H synthase 1 (P23219 whole entry): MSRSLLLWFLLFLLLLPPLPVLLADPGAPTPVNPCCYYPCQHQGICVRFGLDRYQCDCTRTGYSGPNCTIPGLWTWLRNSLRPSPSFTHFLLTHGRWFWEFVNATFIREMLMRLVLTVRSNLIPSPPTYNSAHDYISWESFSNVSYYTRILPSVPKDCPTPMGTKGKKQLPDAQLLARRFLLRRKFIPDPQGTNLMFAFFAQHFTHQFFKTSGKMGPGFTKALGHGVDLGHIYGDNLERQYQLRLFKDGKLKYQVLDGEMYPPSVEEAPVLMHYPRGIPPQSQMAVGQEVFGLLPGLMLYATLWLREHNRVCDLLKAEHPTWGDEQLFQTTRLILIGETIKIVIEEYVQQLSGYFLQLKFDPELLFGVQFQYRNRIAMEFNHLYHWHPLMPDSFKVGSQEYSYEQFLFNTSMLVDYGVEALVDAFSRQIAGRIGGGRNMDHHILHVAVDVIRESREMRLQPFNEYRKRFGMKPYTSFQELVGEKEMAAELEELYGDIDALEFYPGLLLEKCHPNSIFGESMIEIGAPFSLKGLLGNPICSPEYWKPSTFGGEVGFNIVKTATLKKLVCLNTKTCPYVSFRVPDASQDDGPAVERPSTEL
Chain of Substance-P receptor (P25103 whole entry): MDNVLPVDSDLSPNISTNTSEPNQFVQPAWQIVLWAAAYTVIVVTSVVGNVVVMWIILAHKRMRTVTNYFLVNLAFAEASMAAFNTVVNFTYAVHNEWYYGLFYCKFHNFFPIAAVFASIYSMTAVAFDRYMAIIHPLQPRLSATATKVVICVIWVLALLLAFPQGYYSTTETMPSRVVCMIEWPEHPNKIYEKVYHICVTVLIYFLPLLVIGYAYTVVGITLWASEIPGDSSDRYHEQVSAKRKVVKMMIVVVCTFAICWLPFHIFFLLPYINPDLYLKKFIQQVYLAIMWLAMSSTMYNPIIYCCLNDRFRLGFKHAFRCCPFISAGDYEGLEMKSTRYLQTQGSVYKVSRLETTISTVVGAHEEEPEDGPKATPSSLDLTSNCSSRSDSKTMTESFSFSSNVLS

## COc1ccc(CCN(C)CCCC(C#N)(c2ccc(OC)c(OC)c2)C(C)C)cc1OC (configuration not stated)
[1]
  IC50: Not Active
[2]
  IC50: Not Active
[3]; platelet
  IC50: Not Active
[4]
  IC50: Not Active
[5]
  IC50: Not Active
[6]
  IC50: Not Active
[7]
  IC50: Not Active
  Ki: Not Active

## Clc1ccccc1CN1CCc2sccc2C1 [TICLOPIDINE]
[1]
  IC50: Not Active
[2]
  IC50: Not Active
[3]; platelet
  IC50: Not Active
[4]
  IC50: Not Active
[5]
  IC50: Not Active
[6]
  IC50: Not Active
[7]
  IC50: Not Active
  Ki: Not Active

## COc1cc2nc(N3CCN(C(=O)C4CCCO4)CC3)nc(N)c2cc1OC (configuration not stated) [TERAZOSIN]
[1]
  IC50: Not Active
[2]
  IC50: Not Active
[3]; platelet
  IC50: Not Active
[4]
  IC50: Not Active
[5]
  IC50: Not Active
[6]
  IC50: Not Active
[7]
  IC50: Not Active
  Ki: Not Active

## NC1CCN(c2nc3c(cc2F)c(=O)c(C(=O)O)cn3-c2ccc(F)cc2F)C1 (configuration not stated) [TOSUFLOXACIN]
[1]
  IC50: Not Active
[2]
  IC50: Not Active
[3]; platelet
  IC50: Not Active
[4]
  IC50: Not Active
[5]
  IC50: Not Active
[6]
  IC50: Not Active
[7]
  IC50: Not Active
  Ki: Not Active

## SODIUM ORTHOVANAD
[1]
  IC50: Not Active
  Ki: Not Active
[2]
  IC50: Not Active
  Ki: Not Active
[3]; platelet
  IC50: Not Active
  Ki: Not Active
[4]
  IC50: Not Active
  Ki: Not Active
[5]
  IC50: Not Active
  Ki: Not Active
[6]
  IC50: Not Active
  Ki: Not Active
[7]
  IC50: Not Active
  Ki: Not Active

## Cc1c(C)c2c(c(C)c1O)CCC(C)(CN1CCN(c3cc(N4CCCC4)nc(N4CCCC4)n3)CC1)O2 (configuration not stated)
[1]
  IC50: Not Active
[2]
  IC50: Not Active
[3]; platelet
  IC50: Not Active
[4]
  IC50: Not Active
[5]
  IC50: Not Active
[6]
  IC50: Not Active
[7]
  IC50: Not Active
  Ki: Not Active

## Nc1cc(N2CCCCC2)nc(N)[n+]1[O-] [MINOXIDIL]
[1]
  IC50: Not Active
[2]
  IC50: Not Active
[3]; platelet
  IC50: Not Active
[4]
  IC50: Not Active
[5]
  IC50: Not Active
[6]
  IC50: Not Active
[7]
  IC50: Not Active
  Ki: Not Active

## CS(=O)(=O)c1ccc([C@@H](O)[C@@H](CO)NC(=O)C(Cl)Cl)cc1 [THIAMPHENICOL]
[1]
  IC50: Not Active
[2]
  IC50: Not Active
[3]; platelet
  IC50: Not Active
[4]
  IC50: Not Active
[5]
  IC50: Not Active
[6]
  IC50: Not Active
[7]
  IC50: Not Active
  Ki: Not Active

## CC(c1cc2ccccc2s1)N(O)C(N)=O (configuration not stated) [ZILEUTON]
[1]
  IC50: Not Active
[2]
  IC50: Not Active
[3]; platelet
  IC50: Not Active
[4]
  IC50: Not Active
[5]
  IC50: Not Active
[6]
  IC50: Not Active
[7]
  IC50: Not Active
  Ki: Not Active

## CO[C@@H]1[C@@H](OC)[C@H](C)[C@@](O)(CC(=O)O)O[C@H]1[C@H](C)[C@H]1O[C@@]2(CC[C@@](C)([C@H]3CC[C@@](C)([C@@H]4O[C@@H]([C@H]5O[C@](C)(O)[C@H](C)C[C@@H]5C)C[C@@H]4O[C@@H]4C[C@H](OC)[C@@H](OC)[C@H](C)O4)O3)O2)C[C@H](O)[C@H]1C [MADURAMICIN ACID]
[1]
  IC50: Not Active
[2]
  IC50: Not Active
[3]; platelet
  IC50: Not Active
[4]
  IC50: Not Active
[5]
  IC50: Not Active
[6]
  IC50: Not Active
[7]
  IC50: Not Active
  Ki: Not Active

## CC(C)Cc1ccc([C@@H](C)C(=O)O)cc1 [(R)-IBUPROPHEN]
[1]
  IC50: Not Active
[2]
  IC50: Not Active
[3]; platelet
  IC50: Not Active
[4]
  IC50: Not Active
[5]
  IC50: Not Active
[6]
  IC50: Not Active
[7]
  IC50: Not Active
  Ki: Not Active

## NC(=O)N1C(=O)/C(=C(\O)c2cccs2)c2cc(Cl)ccc21 [TENIDAP]
[1]
  IC50: Not Active
[2]
  IC50: Not Active
[3]; read-out: IC50
  IC50: 55 nM
[4]
  IC50: Not Active
[5]
  IC50: Not Active
[6]
  IC50: Not Active
[7]
  IC50: Not Active
  Ki: Not Active

## O=C1C(CC[S+]([O-])c2ccccc2)C(=O)N(c2ccccc2)N1c1ccccc1 (configuration not stated) [SULFINPYRAZONE]
[1]
  IC50: Not Active
[2]
  IC50: Not Active
[3]; platelet
  IC50: Not Active
[4]
  IC50: Not Active
[5]
  IC50: Not Active
[6]
  IC50: Not Active
[7]
  IC50: Not Active
  Ki: Not Active

## CO[C@H]1/C=C/O[C@@]2(C)Oc3c(C)c(O)c4c(O)c(c(/C=N/N5CCN(C6CCCC6)CC5)c(O)c4c3C2=O)NC(=O)/C(C)=C\C=C\[C@H](C)[C@H](O)[C@@H](C)[C@@H](O)[C@@H](C)[C@H](OC(C)=O)[C@@H]1C [RIFAPENTINE]
[1]
  IC50: Not Active
[2]
  IC50: Not Active
[3]; platelet
  IC50: Not Active
[4]
  IC50: Not Active
[5]
  IC50: Not Active
[6]
  IC50: Not Active
[7]
  IC50: Not Active
  Ki: Not Active

## CCCCOc1cc(CC2CNC(=O)N2)ccc1OC (configuration not stated) [RO-201724]
[1]
  IC50: Not Active
[2]
  IC50: Not Active
[3]; platelet
  IC50: Not Active
[4]
  IC50: Not Active
[5]
  IC50: Not Active
[6]
  IC50: Not Active
[7]
  IC50: Not Active
  Ki: Not Active

## N#Cc1ccc(C(c2ccc(C#N)cc2)n2cncn2)cc1 [LETROZOLE]
[1]
  IC50: Not Active
[2]
  IC50: Not Active
[3]; platelet
  IC50: Not Active
[4]
  IC50: Not Active
[5]
  IC50: Not Active
[6]
  IC50: Not Active
[7]
  IC50: Not Active
  Ki: Not Active

## O=C1Nc2ccc(Cl)cc2C(c2ccccc2Cl)=NC1O (configuration not stated) [LORAZEPAM]
[1]
  IC50: Not Active
[2]
  IC50: Not Active
[3]; platelet
  IC50: Not Active
[4]
  IC50: Not Active
[5]
  IC50: Not Active
[6]
  IC50: Not Active
[7]
  IC50: Not Active
  Ki: Not Active
